In patent US7285682B2, “Terphenyl guanidines as β-secretase inhibitors” (Wyeth, priority 2005, dated 2007):

Tests used:
human BACE1 = human BACE1 (Homo sapiens, UniProt P56817); experiment: Fluorescent kinetic assay (BACE-1, FRET peptide substrate WABC-6); format: biochemical; settings: 10 nM enzyme, 25 μM substrate WABC-6, 50 mM Na-Acetate pH 4.5, room temperature
Description: Evaluation of BACE-1 Binding Affinity of Test Compounds
1. Fluorescent Kinetic Assays • Final Assay Conditions: 10 nM human BACE1 (or 10 nM Murine BACE1, 1.5 nM human BACE2), 25 μM substrate (WABC-6, MW 1549.6, from AnaSpec), Buffer: 50 mM Na-Acetate, pH 4.5, 0.05% CHAPS, 25% PBS, room temperature. Na-Acetate was from Aldrich, Cat.# 24,124-5, CHAPS was from Research Organics, Cat. # 1304C 1×, PBS was from Mediatech (Cellgro), Cat# 21-031-CV, peptide substrate AbzSEVNLDAEFRDpa was from AnaSpec, Peptide Name: WABC-6 • Determination of stock substrate (AbzSEVNLDAEFRDpa) concentration: ˜25 mM stock solution is made in DMSO using the peptide weight and MW, and diluted to ˜25 μM (1:1000) in 1×PBS. Concentration is determined by absorbance at 354 nm using an extinction coefficient ε of 18172 M^−1 cm^−1, the concentration of stock substrate is corrected, and the substrate stock stored in small aliquots in −80° C. [Substrate Stock]=ABS^354 nm*10^6/18172 ([…]) The extinction coefficient ε^354 nm was adapted from TACE peptide substrate, which had the same quencher-fluorophore pair. • Determination of Stock Enzyme Concentration: the stock concentration of each enzyme is determined by absorbance at 280 nm using ε of 64150 M^−1 cm^−1 for hBACE1 and MuBACE1, 62870 M^−1 cm^−1 for hBACE2 in 6 M Guanidinium Hydrochloride (from Research Organics, Cat. # 5134G-2), pH ˜6. The extinction Coefficient ε^280 nm for each enzyme was calculated based on known amino acid composition and published extinction coefficients for Trp ([…]) and Tyr ([…]) residues (Anal. Biochem. 182, 319-326). • Dilution and mixing steps: total reaction volume: 100 μL
2× inhibitor dilutions in buffer A (66.7 mM Na-Acetate, pH 4.5, 0.0667% CHAPS) were prepared,
4× enzyme dilution in buffer A (66.7 mM Na-Acetate, pH 4.5, 0.0667% CHAPS) were prepared,
100 μM substrate dilution in 1×PBS was prepared, and […]

human BACE1, sequence (P56817 46-501): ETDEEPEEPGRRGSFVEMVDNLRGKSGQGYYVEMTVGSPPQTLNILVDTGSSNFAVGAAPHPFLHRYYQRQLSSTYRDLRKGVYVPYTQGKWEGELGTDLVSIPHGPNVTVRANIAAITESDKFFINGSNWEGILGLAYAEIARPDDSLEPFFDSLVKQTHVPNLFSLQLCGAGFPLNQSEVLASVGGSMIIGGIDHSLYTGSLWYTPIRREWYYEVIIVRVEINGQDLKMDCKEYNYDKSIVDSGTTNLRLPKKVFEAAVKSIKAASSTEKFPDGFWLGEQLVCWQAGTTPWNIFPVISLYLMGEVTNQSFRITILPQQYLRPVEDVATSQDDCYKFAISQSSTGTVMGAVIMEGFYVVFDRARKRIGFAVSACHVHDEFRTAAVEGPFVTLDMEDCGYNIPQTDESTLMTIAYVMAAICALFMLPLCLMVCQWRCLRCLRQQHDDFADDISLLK

Compound | IC50 (human BACE1) [µM] | melting point [°C]
CC(C)(C)c1ccc(-c2cccc(-c3ccccc3)c2CC(=O)NC(=N)N)cc1 [Example 3, N-[(4-tert-Butyl-1,1′:3′,1″-terphenyl-2′-yl)acetyl]guanidine] | 13.9 | 171 to 174
N=C(N)NC(=O)Cc1c(-c2ccccc2)cccc1-c1ccc2ccccc2c1 [Example 2, N-{[3-(2-Naphthyl)-1,1′-biphenyl-2-yl]acetyl}guanidine] | 29.6 | 36.8 to 36.9
NC(N)=NC(=O)Cc1c(-c2ccccc2)cccc1-c1ccc(Oc2ccccc2)cc1 [Example 4, N″-[(4-Phenoxy-1,1′:3′,1″-terphenyl-2′-yl)acetyl]guanidine] | 5.95 | 
N=C(N)NC(=O)Cc1c(-c2ccccc2)cccc1-c1ccccc1.O=C(O)C(F)(F)F [Example 1, N-(1,1′:3′,1″-Terphenyl-2′-ylacetyl)guanidine TFA salt] | 15 | 64 to 67
